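96-well plates; 48 h exposure; 5 concentrations. Endpoints by linear interpolation between flanking doses. Not reached: highest tested concentration assigned. GI50 marks 50% less growth.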 Activity calls are given as the source filed them. Cut-off read from the data, not from the text of the source: active = GI50 up to about 1.1 µM and inactive = higher.
What was measured:
Assay in all cases: inhibition of tumour cell growth, NCI panel, 48 h
[1] = test system: 786-0
[2] = test system: A498
[3] = test system: A549
[4] = test system: ACHN
[5] = test system: BT-549
[6] = test system: CAKI-1
[7] = test system: CCRF-CEM
[8] = test system: COLO 205
[9] = test system: DU-145
[10] = test system: EKVX
[11] = test system: HCC 2998
[12] = test system: HCT-116
[13] = test system: HCT-15
[14] = test system: HL-60
[15] = test system: HOP-62
[16] = test system: HOP-92
[17] = test system: HT-29
[18] = test system: IGROV-1
[19] = test system: K562
[20] = test system: KM12
[21] = test system: LOX IMVI
[22] = test system: M14
[23] = test system: MCF7
[24] = test system: MDA-MB-231
[25] = test system: MDA-MB-435
[26] = test system: MDA-N
[27] = test system: MOLT-4
[28] = test system: Malme-3M
[29] = test system: NCI-H226
[30] = test system: NCI-H23
[31] = test system: NCI-H522
[32] = test system: NCI/ADR-RES
[33] = test system: OVCAR-3
[34] = test system: OVCAR-5
[35] = test system: OVCAR-8
[36] = test system: PC-3
[37] = test system: RPMI-8226
[38] = test system: SF-268
[39] = test system: SF-295
[40] = test system: SF-539
[41] = test system: SK-MEL-2
[42] = test system: SK-MEL-5
[43] = test system: SK-OV-3
[44] = test system: SN12C
[45] = test system: SNB-75
[46] = test system: SR
[47] = test system: SW-620
[48] = test system: T47D
[49] = test system: TK-10
[50] = test system: U-251
[51] = test system: UACC-257
[52] = test system: UACC-62
[53] = test system: UO-31
[54] = test system: OVCAR-4
[55] = test system: RXF 393
[56] = test system: SK-MEL-28
[57] = test system: SNB-19

## COc1ccc2c(c1)OCC1Cc3ccccc3OC21 (stereo not given)
[1]
  GI50: > 100 µM (inactive)
[2]
  GI50: > 10 µM (inactive)
[3]
  GI50: > 100 µM (inactive)
[4]
  GI50: > 100 µM (inactive)
[5]
  GI50: > 100 µM (inactive)
[6]
  GI50: > 100 µM (inactive)
[7]
  GI50: > 100 µM (inactive)
[8]
  GI50: > 100 µM (inactive)
[9]
  GI50: > 100 µM (inactive)
[10]
  GI50: 49.9 µM (inactive)
[11]
  GI50: > 100 µM (inactive)
[12]
  GI50: > 100 µM (inactive)
[13]
  GI50: > 100 µM
[14]
  GI50: > 100 µM (inactive)
[15]
  GI50: > 100 µM (inactive)
[16]
  GI50: > 100 µM (inactive)
[17]
  GI50: > 100 µM (inactive)
[18]
  GI50: > 100 µM (inactive)
[19]
  GI50: > 100 µM (inactive)
[20]
  GI50: 74 µM (inactive)
[21]
  GI50: > 100 µM (inactive)
[22]
  GI50: 69.5 µM (inactive)
[23]
  GI50: > 100 µM (inactive)
[24]
  GI50: > 100 µM (inactive)
[25]
  GI50: > 100 µM (inactive)
[26]
  GI50: > 10 µM (inactive)
[27]
  GI50: 54.1 µM (inactive)
[28]
  GI50: > 100 µM (inactive)
[29]
  GI50: > 100 µM (inactive)
[30]
  GI50: > 100 µM (inactive)
[31]
  GI50: > 100 µM (inactive)
[32]
  GI50: > 100 µM (inactive)
[33]
  GI50: > 100 µM (inactive)
[34]
  GI50: > 100 µM (inactive)
[35]
  GI50: > 100 µM (inactive)
[36]
  GI50: 98.4 µM (inactive)
[37]
  GI50: 75.7 µM (inactive)
[38]
  GI50: > 100 µM (inactive)
[39]
  GI50: > 100 µM (inactive)
[40]
  GI50: > 100 µM (inactive)
[41]
  GI50: > 100 µM (inactive)
[42]
  GI50: > 10 µM (inactive)
[43]
  GI50: > 100 µM (inactive)
[44]
  GI50: > 100 µM (inactive)
[45]
  GI50: > 100 µM (inactive)
[46]
  GI50: > 100 µM (inactive)
[47]
  GI50: > 100 µM (inactive)
[48]
  GI50: > 100 µM (inactive)
[49]
  GI50: > 100 µM (inactive)
[50]
  GI50: > 10 µM (inactive)
[51]
  GI50: 52 µM (inactive)
[52]
  GI50: > 100 µM (inactive)
[53]
  GI50: > 100 µM (inactive)

## O=C(NNC(=O)c1c(Cl)c(Cl)c(Cl)c(Cl)c1-c1nc2ccccc2[nH]1)c1ccc(Cl)cc1
[1]
  GI50: 51.8 µM (inactive)
[2]
  GI50: 54.5 µM (inactive)
[3]
  GI50: 45 µM (inactive)
[4]
  GI50: 46.9 µM (inactive)
[5]
  GI50: 46.1 µM (inactive)
[6]
  GI50: 40.6 µM (inactive)
[7]
  GI50: 22.4 µM (inactive)
[8]
  GI50: 32.1 µM (inactive)
[9]
  GI50: 42.5 µM (inactive)
[10]
  GI50: 44.2 µM (inactive)
[12]
  GI50: 46.3 µM (inactive)
[13]
  GI50: 34.4 µM
[14]
  GI50: 36.1 µM (inactive)
[15]
  GI50: 61.9 µM (inactive)
[16]
  GI50: 24.6 µM (inactive)
[17]
  GI50: 58.6 µM (inactive)
[18]
  GI50: 17.5 µM (inactive)
[19]
  GI50: 35.8 µM (inactive)
[20]
  GI50: 38.1 µM (inactive)
[21]
  GI50: 65.9 µM (inactive)
[22]
  GI50: 35.5 µM (inactive)
[23]
  GI50: 34.9 µM (inactive)
[25]
  GI50: 24 µM (inactive)
[26]
  GI50: 21.3 µM (inactive)
[27]
  GI50: 38.9 µM (inactive)
[28]
  GI50: 89.3 µM (inactive)
[29]
  GI50: 43.4 µM (inactive)
[30]
  GI50: 40.6 µM (inactive)
[31]
  GI50: 49.8 µM (inactive)
[32]
  GI50: 32.9 µM (inactive)
[33]
  GI50: 65.2 µM (inactive)
[54]
  GI50: 50.2 µM (inactive)
[34]
  GI50: > 100 µM (inactive)
[35]
  GI50: 66.1 µM (inactive)
[36]
  GI50: 55 µM (inactive)
[37]
  GI50: 33 µM (inactive)
[55]
  GI50: 43.4 µM (inactive)
[38]
  GI50: > 100 µM (inactive)
[39]
  GI50: 44.5 µM (inactive)
[40]
  GI50: 47.4 µM (inactive)
[56]
  GI50: 81.1 µM (inactive)
[41]
  GI50: 37.9 µM (inactive)
[42]
  GI50: 38.3 µM (inactive)
[43]
  GI50: > 100 µM (inactive)
[44]
  GI50: 37.7 µM (inactive)
[57]
  GI50: 68.5 µM (inactive)
[45]
  GI50: 38.5 µM (inactive)
[46]
  GI50: 33.8 µM (inactive)
[47]
  GI50: 50.7 µM (inactive)
[48]
  GI50: 21.7 µM (inactive)
[52]
  GI50: 56.4 µM (inactive)
[53]
  GI50: 30.3 µM (inactive)

— ChEMBL document CHEMBL1201862, “PubChem BioAssay data set” (2004)
